Two compounds from patent US9006221B2, “Method of modulating ship activity” (H. Lee Moffitt Cancer Center and Reserach Institute, Inc., priority 2008, dated 2015) can be followed below.

The test system of this test is priming of allogeneic T cell responses. The test is described as follows: MLR with splenocytes from inhibitor-treated mice as stimulators. It counts as in vivo, mouse. The text has this: FACS quantitation of Mac1^+Gr1^+ MIR cells in spleen (A) and lymph node (B) of C57BL/6 mice treated with the SHIP1 inhibitor (Compound), vehicle (Vehicle) or unmanipulated controls (Normal) as indicated. (C) Mixed-Leukocyte-Reactions (MLR) where splenocytes from SHIP1 inhibitor-treated C57BL6 (H2b) mice were used as stimulators for BALB/C (H2d) responders. In parallel splenocytes from either unmanipulated (Normal) or Vehicle treated C57BL6 mice were used as positive controls for the MLR. […] (D) Human PBMC were pre-treated for 24 hr with 3α-aminocholestane (Compound) or vehicle, irradiated and then used as stimulators for untreated PBMC from a different donor in a one-way MLR. [BALB/C=responder splenocytes not mixed with BL6 stimulators; Stim=irradiated, SHIP1 inhibitor-treated human PBMC absent responder PBMC; Resp=human PBMC responders absent allogeneic stimulators; Media, media to which only [3H]thymidine was added]. […] (E) SHIP1 inhibition increases circulating granulocyte/neutrophil numbers. Mice were treated daily for 7 days with 60 μM SHIP1 inhibitor (Compound), its vehicle (Vehicle) or were unmanipulated (Normal). Absolute peripheral blood granulocyte numbers were determined by an automated blood cell analyzer. […]

Regarding `CC(C)CCC[C@@H](C)[C@H]1CC[C@H]2[C@@H]3CC[C@H]4C[C@H](N)CC[C@]4(C)[C@H]3CC[C@]12C` [NSC23922, (3R,5S,8R,9S,10S,13R,14S,17R)-10,13-dimethyl-17-[(2R)-6-methylheptan-2-yl]-2,3,4,5,6,7,8,9,11,12,14,15,16,17-tetradecahydro-1H-cyclopenta[a]phenanthren-3-amine], the “ability of splenocytes from treated mice to stimulate allogeneic T cell responses” value (H2b mice treated daily i.p. 60 μM for 7 days, H2d responder splenocytes) was “profoundly impaired”.

On to `OC(c1cc(-c2ccccc2)nc2c1ccc1ccccc12)C1CCCCN1` (centres unmarked) [NSC13480, (2-phenylbenzo[h]quinolin-4-yl)-piperidin-2-ylmethanol], for which the “allogeneic T cell priming by splenocytes from treated mice” value (splenocytes from three NSC13480 treated mice as stimulators, MHC mismatched responders) is “profound inhibition”.
